Reference: publication PMC7464304, “Multiple-Reaction Monitoring Tandem Mass Method for Determination of Phenolics and Water-Soluble Vitamins in Eccoilopus formosanus” (Molecules, 2020)

Test: DPPH radical scavenging activity
Conditions: 0.1 mM DPPH, 30 min in the dark at room temperature, absorbance 517 nm; mean ± SD (n = 3)
Description: The reaction mixture was left in the dark at room temperature for 30 min. […] The percentage of scavenging activity against the DPPH radical was calculated by the following equation:Radical scavenging activity (%) = (Abs control − Abs sample)/Abs control × 100% where Abs control is the absorbance of the DPPH radical in methanol; Abs sample is the absorbance of the DPPH radical solution mixed with the sample extract. […] All determinations were performed in triplicate.

`O=c1cc(-c2ccc(O)cc2)oc2cc(O)cc(O)c12` [Apigenin, apigenin] and `O=C(O)c1cc(O)c(O)c(O)c1` [Gallic acid, gallic acid] are within 1.5-fold of each other in “DPPH Radical Scavenging Activity, IC50 Value”: 31.6 ± 0.9 µg/mL for the first, 21.1 ± 0.3 µg/mL for the second.

Compared with `O=C(O)/C=C/c1ccc(O)c(O)c1` [Caffeic acid, caffeic acid], `COc1cc(/C=C/C(=O)O)ccc1O` [Ferulic acid, ferulic acid] is 1.8-fold higher in “DPPH Radical Scavenging Activity, IC50 Value”: 25.3 ± 0.3 µg/mL for the first, 45.2 ± 0.3 µg/mL for the second.

In the case of `Cc1ncc(C[n+]2csc(CCO)c2C)c(N)n1` [Thiamine, thiamine], the “DPPH Radical Scavenging Activity, IC50 Value” is reported as >500 µg/mL.
